Assay type in all cases: cell-based
For one test, the system named is Aβ-38. Kind of test: MSD Human (6E10) Ab 3-PLEX elisa, conditioned media of 2B7 cells: Aβ-38. Conditions: Homo sapiens, Aβ-38 (superscript a). An outline of the steps:
(§1)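 Cells grown to confluence, washed, then exposed to diluted compound (1% DMSO) for 5 hours at 37° C. Collected media mixed 1:1 with blocking buffer and added to capture plates with detection antibody. After overnight incubation at 4 degrees C, wells washed and read on MSD imager.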

A further test relates to Aβ-42. Kind of test: MSD Human (6E10) Ab 3-PLEX elisa, conditioned media of 2B7 cells: Aβ-42. Conditions: Homo sapiens, Aβ-42 (superscript c). An outline of the steps:
as §1

The subject of the next test is Aβ-40. Kind of test: MSD Human (6E10) Ab 3-PLEX elisa, conditioned media of 2B7 cells: Aβ-40. Conditions: Homo sapiens; for IC50: Aβ-40 (superscript b). An outline of the steps:
as §1

Where two headings read alike, the source gives them in different places.

Regarding `CCO[C@@H]([C@H]1C[C@@H](C)[C@H]2[C@H](O1)[C@H](O)[C@@]1(C)[C@@H]3CC[C@H]4C(C)(C)[C@@H](OC(=O)N5CC(C(=O)O)C5)CC[C@@]45C[C@@]35CC[C@]21C)C(C)(C)O`, the IC50 in the test with Aβ-38 (read-out: 50% reduction value) was < 1000 nM; with Aβ-38 (read-out: IC50 range), < 1000 nM; in the test on Aβ-42 (read-out: 50% reduction value), < 1000 nM; in the test with Aβ-42 (read-out: IC50 range), < 1000 nM; with Aβ-40 (read-out: 50% reduction value), 1000 to 10000 nM; in the test with Aβ-40 (read-out: IC50 range), 1000 to 10000 nM.

In the case of `CC(C)O[C@@H](C1C[C@@H](C)[C@H]2C(O1)[C@H](O)[C@@]1(C)C3CC[C@H]4C(C)(C)C(O[C@H]5CN(C6COC6)CCO5)CC[C@@]45C[C@@]35CC[C@]21C)C(C)(C)O` (stereo partly drawn), the IC50 in the test on Aβ-38 (read-out: 50% reduction value) was < 1000 nM; in the test with Aβ-38 (read-out: IC50 range), < 1000 nM; in the test on Aβ-42 (read-out: 50% reduction value), < 1000 nM; with Aβ-42 (read-out: IC50 range), < 1000 nM; in the test on Aβ-40 (read-out: 50% reduction value), 1000 to 10000 nM; with Aβ-40 (read-out: IC50 range), 1000 to 10000 nM.

As for `CCO[C@@H](C1C[C@@H](C)[C@H]2C(O1)[C@H](O)[C@@]1(C)C3CC[C@H]4C(C)(C)C(O[C@H]5CN(C6CCOCC6)CCO5)CC[C@@]45C[C@@]35CC[C@]21C)C(C)(C)O` (stereo partly drawn), the IC50 is < 1000 nM with Aβ-38 (read-out: 50% reduction value); < 1000 nM in the test with Aβ-38 (read-out: IC50 range); < 1000 nM in the test on Aβ-42 (read-out: 50% reduction value); < 1000 nM in the test on Aβ-42 (read-out: IC50 range); 1000 to 10000 nM in the test with Aβ-40 (read-out: 50% reduction value); 1000 to 10000 nM in the test with Aβ-40 (read-out: IC50 range).

With `CCO[C@@H](C1C[C@@H](C)[C@H]2C(O1)[C@H](O)[C@@]1(C)C3CC[C@H]4C(C)(C)C(O[C@H]5CN(C6CCOC6)CCO5)CC[C@@]45C[C@@]35CC[C@]21C)C(C)(C)O` (stereo partly drawn), the IC50 in the test on Aβ-38 (read-out: 50% reduction value) was < 1000 nM; with Aβ-42 (read-out: 50% reduction value), < 1000 nM; in the test on Aβ-42 (read-out: IC50 range), < 1000 nM; in the test with Aβ-40 (read-out: 50% reduction value), 1000 to 10000 nM.

Regarding `CCO[C@@H](C1C[C@@H](C)[C@H]2C(O1)[C@H](O)[C@@]1(C)C3CC[C@H]4C(C)(C)C(OC(N)=O)CC[C@@]45C[C@@]35CC[C@]21C)C(C)(C)O` (stereo partly drawn), the IC50 with Aβ-38 (read-out: 50% reduction value) was < 1000 nM; in the test on Aβ-42 (read-out: 50% reduction value) it was < 1000 nM; in the test on Aβ-42 (read-out: IC50 range) it was < 1000 nM; in the test on Aβ-40 (read-out: 50% reduction value) it was 1000 to 10000 nM.

The inhibition is how much of the control response was suppressed. A low value points to a weak effect. In the case of `CCO[C@@H](C1C[C@@H](C)[C@H]2C(O1)[C@H](O)[C@@]1(C)C3CC[C@H]4C(C)(C)C(OC(=O)NC)CC[C@@]45C[C@@]35CC[C@]21C)C(C)(C)O` (stereo partly drawn), the IC50 in the test with Aβ-38 (read-out: 50% reduction value) and with Aβ-42 (read-out: 50% reduction value) was < 1000 nM in each case. Further, the inhibition at 20 µM in the test on Aβ-40 (Aβ-40, 20 μM) was > 75%.

As to `C=C(C)CO[C@@H](C1C[C@@H](C)[C@H]2C(O1)[C@H](O)[C@@]1(C)C3CC[C@H]4C(C)(C)C(OC(=O)NC5CNC5)CC[C@@]45C[C@@]35CC[C@]21C)C(C)(C)O` (stereo partly drawn), the IC50 was < 1000 nM in the test on Aβ-38 (read-out: 50% reduction value); < 1000 nM in the test on Aβ-42 (read-out: 50% reduction value); < 1000 nM in the test with Aβ-42 (read-out: IC50 range); 1000 to 10000 nM in the test on Aβ-40 (read-out: 50% reduction value); > 10000 nM in the test with Aβ-40 (read-out: IC50 range).

Take `CC(C)CO[C@@H](C1C[C@@H](C)[C@H]2C(O1)[C@H](O)[C@@]1(C)C3CC[C@H]4C(C)(C)C(OC(=O)NC5CNC5)CC[C@@]45C[C@@]35CC[C@]21C)C(C)(C)O` (stereo partly drawn): the IC50 was 1000 to 10000 nM in the test with Aβ-38 (read-out: 50% reduction value), < 1000 nM with Aβ-42 (read-out: 50% reduction value), < 1000 nM in the test with Aβ-42 (read-out: IC50 range) and 1000 to 10000 nM in the test on Aβ-40 (read-out: 50% reduction value).

As for `CC(C)CO[C@@H](C1C[C@@H](C)[C@H]2C(O1)[C@H](O)[C@@]1(C)C3CC[C@H]4C(C)(C)C(OC(=O)NC5CN(C=O)C5)CC[C@@]45C[C@@]35CC[C@]21C)C(C)(C)O` (stereo partly drawn), the IC50 was 1000 to 10000 nM in the test on Aβ-38 (read-out: 50% reduction value); < 1000 nM in the test with Aβ-42 (read-out: 50% reduction value); 1000 to 10000 nM with Aβ-42 (read-out: IC50 range); 1000 to 10000 nM in the test with Aβ-40 (read-out: 50% reduction value); 1000 to 10000 nM in the test on Aβ-40 (read-out: IC50 range).

Consider `CCO[C@@H](C1C[C@@H](C)[C@H]2C(O1)[C@H](O)[C@@]1(C)C3CC[C@H]4C(C)(C)C(OC(=O)N5CC[C@H](C(=O)O)C5)CC[C@@]45C[C@@]35CC[C@]21C)C(C)(C)O` (stereo partly drawn), for which the IC50 in the test with Aβ-38 (read-out: 50% reduction value) was 1000 to 10000 nM; with Aβ-42 (read-out: 50% reduction value), < 1000 nM; with Aβ-42 (read-out: IC50 range) it was < 1000 nM; in the test with Aβ-40 (read-out: 50% reduction value), > 10000 nM.

Take `CCO[C@@H](C1C[C@@H](C)[C@H]2C(O1)[C@H](O)[C@@]1(C)C3CC[C@H]4C(C)(C)C(OC(=O)N5CC[C@@H](C(=O)O)C5)CC[C@@]45C[C@@]35CC[C@]21C)C(C)(C)O` (stereo partly drawn): the IC50 in the test on Aβ-38 (read-out: 50% reduction value) was 1000 to 10000 nM; with Aβ-42 (read-out: 50% reduction value), < 1000 nM; in the test with Aβ-42 (read-out: IC50 range), < 1000 nM; in the test with Aβ-40 (read-out: 50% reduction value), > 10000 nM.

As for `CCO[C@@H](C1C[C@@H](C)[C@H]2C(O1)[C@H](O)[C@@]1(C)C3CC[C@H]4C(C)(C)C(O[C@H]5CN(CCC(=O)O)CCO5)CC[C@@]45C[C@@]35CC[C@]21C)C(C)(C)O` (stereo partly drawn), the IC50 in the test on Aβ-38 (read-out: 50% reduction value) was < 1000 nM; in the test with Aβ-42 (read-out: 50% reduction value), < 1000 nM; in the test with Aβ-42 (read-out: IC50 range), < 1000 nM; in the test with Aβ-40 (read-out: 50% reduction value), 1000 to 10000 nM.

Take `CCO[C@@H](C1C[C@@H](C)[C@H]2C(O1)[C@H](O)[C@@]1(C)C3CC[C@H]4C(C)(C)C(O[C@H]5CN(CCCC(=O)O)CCO5)CC[C@@]45C[C@@]35CC[C@]21C)C(C)(C)O` (stereo partly drawn): the IC50 in the test on Aβ-38 (read-out: 50% reduction value) is 1000 to 10000 nM; in the test with Aβ-38 (read-out: IC50 range), 1000 to 10000 nM; with Aβ-42 (read-out: 50% reduction value) it was < 1000 nM; in the test with Aβ-42 (read-out: IC50 range) it was < 1000 nM; in the test with Aβ-40 (read-out: 50% reduction value) it was 1000 to 10000 nM.

The values are drawn from patent publication US20110251379A1, “COMPOUNDS USEFUL FOR TREATING NEURODEGENERATIVE DISORDERS” (Satori Pharmaceuticals, Inc., priority 2010, published 2011).
